Legend:
[1] = target: Serine/threonine-protein kinase pim-1 (Homo sapiens, UniProt P11309); experiment: Inhibition of recombinant human PIM1
[2] = target: Serine/threonine-protein kinase PLK1 (Homo sapiens, UniProt P53350); experiment: Inhibition of recombinant human PLK1 using casein as substrate
[3] = target: Insulin-like growth factor 1 receptor (Homo sapiens, UniProt P08069); experiment: Inhibition of recombinant human IGF1-R using poly(Glu,Tyr)4:1 as substrate
[4] = target: Serine/threonine-protein kinase Nek6 (Homo sapiens, UniProt Q9HC98); experiment: Inhibition of recombinant human NEK6
[5] = target: Dual specificity mitogen-activated protein kinase kinase 1 (Homo sapiens, UniProt Q02750); experiment: Inhibition of wild type human MEK1
[6] = target: T1, Serine/threonine-protein kinase Nek2 (Homo sapiens, UniProt P51955); experiment: Inhibition of recombinant human NEK2
T1 sequence (P51955 whole entry): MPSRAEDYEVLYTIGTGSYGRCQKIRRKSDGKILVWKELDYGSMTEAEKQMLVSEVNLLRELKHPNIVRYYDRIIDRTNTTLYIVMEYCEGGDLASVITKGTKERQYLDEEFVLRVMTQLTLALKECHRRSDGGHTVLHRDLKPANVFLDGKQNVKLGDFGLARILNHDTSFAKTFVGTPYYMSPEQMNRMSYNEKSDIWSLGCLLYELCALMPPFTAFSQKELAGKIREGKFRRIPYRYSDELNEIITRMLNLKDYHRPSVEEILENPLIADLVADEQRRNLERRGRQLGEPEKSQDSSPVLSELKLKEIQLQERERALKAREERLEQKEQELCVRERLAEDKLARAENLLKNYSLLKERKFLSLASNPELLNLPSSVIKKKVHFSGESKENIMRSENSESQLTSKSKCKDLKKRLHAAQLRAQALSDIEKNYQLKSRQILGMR

[7] = target: Proto-oncogene tyrosine-protein kinase Src (Homo sapiens, UniProt P12931); experiment: Inhibition of recombinant human SRC using poly(Glu,Tyr)4:1 as substrate
[8] = target: T2, Tyrosine-protein kinase receptor UFO (Homo sapiens, UniProt P30530); experiment: Inhibition of recombinant human AXL
T2 sequence (P30530 whole entry): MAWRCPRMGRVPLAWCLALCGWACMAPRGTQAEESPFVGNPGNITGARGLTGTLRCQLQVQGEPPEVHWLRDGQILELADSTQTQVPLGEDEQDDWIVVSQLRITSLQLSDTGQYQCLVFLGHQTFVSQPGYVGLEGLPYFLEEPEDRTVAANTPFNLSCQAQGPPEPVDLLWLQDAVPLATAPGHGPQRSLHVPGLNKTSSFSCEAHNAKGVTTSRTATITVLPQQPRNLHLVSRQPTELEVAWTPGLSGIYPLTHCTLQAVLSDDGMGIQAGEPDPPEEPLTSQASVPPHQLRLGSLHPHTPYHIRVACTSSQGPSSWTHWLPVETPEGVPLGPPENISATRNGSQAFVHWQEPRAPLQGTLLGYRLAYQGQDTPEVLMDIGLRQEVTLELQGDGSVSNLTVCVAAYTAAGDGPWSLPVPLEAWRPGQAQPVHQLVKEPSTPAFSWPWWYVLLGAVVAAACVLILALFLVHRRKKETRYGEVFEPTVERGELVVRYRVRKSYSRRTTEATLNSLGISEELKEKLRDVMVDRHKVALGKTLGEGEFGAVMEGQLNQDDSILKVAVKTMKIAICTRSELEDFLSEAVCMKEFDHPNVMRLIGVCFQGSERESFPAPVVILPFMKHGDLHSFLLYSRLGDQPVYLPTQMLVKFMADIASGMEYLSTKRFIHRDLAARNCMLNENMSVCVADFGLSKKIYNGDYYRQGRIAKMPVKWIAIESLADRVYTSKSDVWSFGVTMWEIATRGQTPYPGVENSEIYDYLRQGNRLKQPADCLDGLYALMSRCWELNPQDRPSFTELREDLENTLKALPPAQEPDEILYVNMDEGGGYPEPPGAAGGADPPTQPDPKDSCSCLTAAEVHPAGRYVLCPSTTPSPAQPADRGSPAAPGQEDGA

[9] = target: RAC-alpha serine/threonine-protein kinase (Homo sapiens, UniProt P31749); experiment: Inhibition of recombinant human AKT1 using GSK3 (amino acids 14 to 27) as substrate
[10] = target: Vascular endothelial growth factor receptor 2 (Homo sapiens, UniProt P35968); experiment: Inhibition of recombinant human VEGF-R2 using poly(Glu,Tyr)4:1 as substrate
[11] = target: ALK tyrosine kinase receptor (Homo sapiens, UniProt Q9UM73); experiment: Inhibition of recombinant human ALK
Aurora kinase B = Aurora kinase B (Homo sapiens, UniProt Q96GD4); experiment: Inhibition of recombinant human Aurora-B using tetra(LRRWLSG) as substrate
[12] = target: Hepatocyte growth factor receptor (Homo sapiens, UniProt P08581); experiment: Inhibition of wild type human MET using poly(Ala,Glu,Lys,Tyr) as substrate
Focal adhesion kinase 1 = Focal adhesion kinase 1 (Homo sapiens, UniProt Q05397); experiment: Inhibition of recombinant human FAK using poly(Glu,Tyr)4:1 as substrate
[13] = target: Serine/threonine-protein kinase N1 (Homo sapiens, UniProt Q16512); experiment: Inhibition of recombinant human PRK1
[14] = target: T3, NUAK family SNF1-like kinase 1 (Homo sapiens, UniProt O60285); experiment: Inhibition of recombinant human ARK5
T3 sequence (O60285 whole entry): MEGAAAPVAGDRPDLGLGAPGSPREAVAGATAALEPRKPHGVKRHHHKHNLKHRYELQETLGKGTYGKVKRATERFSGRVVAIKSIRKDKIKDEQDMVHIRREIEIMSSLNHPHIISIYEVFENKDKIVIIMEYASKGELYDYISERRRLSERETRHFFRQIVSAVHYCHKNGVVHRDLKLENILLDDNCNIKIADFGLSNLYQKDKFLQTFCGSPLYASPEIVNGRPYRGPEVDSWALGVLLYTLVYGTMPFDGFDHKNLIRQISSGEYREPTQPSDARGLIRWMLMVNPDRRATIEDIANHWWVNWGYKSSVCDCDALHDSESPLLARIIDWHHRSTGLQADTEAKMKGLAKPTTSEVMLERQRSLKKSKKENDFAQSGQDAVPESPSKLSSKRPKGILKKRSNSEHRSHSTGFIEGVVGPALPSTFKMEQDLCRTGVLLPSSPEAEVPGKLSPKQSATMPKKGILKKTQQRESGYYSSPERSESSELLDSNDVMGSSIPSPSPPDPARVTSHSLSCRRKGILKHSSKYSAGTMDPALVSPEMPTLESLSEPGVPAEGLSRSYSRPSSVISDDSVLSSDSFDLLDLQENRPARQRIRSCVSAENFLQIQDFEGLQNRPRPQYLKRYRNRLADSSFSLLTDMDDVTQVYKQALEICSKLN

Sequence of Hepatocyte growth factor receptor (P08581 whole entry): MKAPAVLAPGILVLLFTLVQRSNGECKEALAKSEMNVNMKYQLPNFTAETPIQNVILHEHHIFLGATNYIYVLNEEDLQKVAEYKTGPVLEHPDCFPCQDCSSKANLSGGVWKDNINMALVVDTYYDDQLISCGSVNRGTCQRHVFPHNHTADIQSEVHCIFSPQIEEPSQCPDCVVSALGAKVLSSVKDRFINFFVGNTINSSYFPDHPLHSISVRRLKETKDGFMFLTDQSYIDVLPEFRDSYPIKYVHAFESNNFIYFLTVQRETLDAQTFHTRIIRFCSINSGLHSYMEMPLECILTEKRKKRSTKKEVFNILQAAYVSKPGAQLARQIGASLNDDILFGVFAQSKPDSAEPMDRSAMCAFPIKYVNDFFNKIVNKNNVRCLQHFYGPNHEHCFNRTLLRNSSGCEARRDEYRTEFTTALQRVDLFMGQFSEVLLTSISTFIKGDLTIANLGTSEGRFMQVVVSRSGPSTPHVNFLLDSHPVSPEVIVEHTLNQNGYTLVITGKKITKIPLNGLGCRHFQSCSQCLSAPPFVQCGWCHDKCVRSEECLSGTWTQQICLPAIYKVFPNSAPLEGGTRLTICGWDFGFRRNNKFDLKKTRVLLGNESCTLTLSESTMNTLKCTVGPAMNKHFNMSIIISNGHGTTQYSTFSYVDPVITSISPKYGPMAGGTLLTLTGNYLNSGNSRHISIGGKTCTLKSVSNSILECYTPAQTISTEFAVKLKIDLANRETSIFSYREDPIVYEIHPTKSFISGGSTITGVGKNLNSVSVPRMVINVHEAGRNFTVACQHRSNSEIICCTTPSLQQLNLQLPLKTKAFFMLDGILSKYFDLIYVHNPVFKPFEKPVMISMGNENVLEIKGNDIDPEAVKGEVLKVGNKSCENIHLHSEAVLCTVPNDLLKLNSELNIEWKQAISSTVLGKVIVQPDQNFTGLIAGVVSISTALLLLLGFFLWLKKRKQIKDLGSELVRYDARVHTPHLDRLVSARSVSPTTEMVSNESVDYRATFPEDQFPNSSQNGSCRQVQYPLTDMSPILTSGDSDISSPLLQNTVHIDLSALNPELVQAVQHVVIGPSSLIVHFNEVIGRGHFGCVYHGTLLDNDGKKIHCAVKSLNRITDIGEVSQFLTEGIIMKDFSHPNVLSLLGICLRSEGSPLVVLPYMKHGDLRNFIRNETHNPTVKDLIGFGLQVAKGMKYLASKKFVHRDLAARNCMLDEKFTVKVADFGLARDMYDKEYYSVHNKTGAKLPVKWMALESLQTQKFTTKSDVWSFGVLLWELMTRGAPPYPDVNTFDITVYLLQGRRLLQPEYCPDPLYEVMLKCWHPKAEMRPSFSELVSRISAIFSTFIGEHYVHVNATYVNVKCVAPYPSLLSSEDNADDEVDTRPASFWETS
Sequence of Vascular endothelial growth factor receptor 2 (P35968 whole entry): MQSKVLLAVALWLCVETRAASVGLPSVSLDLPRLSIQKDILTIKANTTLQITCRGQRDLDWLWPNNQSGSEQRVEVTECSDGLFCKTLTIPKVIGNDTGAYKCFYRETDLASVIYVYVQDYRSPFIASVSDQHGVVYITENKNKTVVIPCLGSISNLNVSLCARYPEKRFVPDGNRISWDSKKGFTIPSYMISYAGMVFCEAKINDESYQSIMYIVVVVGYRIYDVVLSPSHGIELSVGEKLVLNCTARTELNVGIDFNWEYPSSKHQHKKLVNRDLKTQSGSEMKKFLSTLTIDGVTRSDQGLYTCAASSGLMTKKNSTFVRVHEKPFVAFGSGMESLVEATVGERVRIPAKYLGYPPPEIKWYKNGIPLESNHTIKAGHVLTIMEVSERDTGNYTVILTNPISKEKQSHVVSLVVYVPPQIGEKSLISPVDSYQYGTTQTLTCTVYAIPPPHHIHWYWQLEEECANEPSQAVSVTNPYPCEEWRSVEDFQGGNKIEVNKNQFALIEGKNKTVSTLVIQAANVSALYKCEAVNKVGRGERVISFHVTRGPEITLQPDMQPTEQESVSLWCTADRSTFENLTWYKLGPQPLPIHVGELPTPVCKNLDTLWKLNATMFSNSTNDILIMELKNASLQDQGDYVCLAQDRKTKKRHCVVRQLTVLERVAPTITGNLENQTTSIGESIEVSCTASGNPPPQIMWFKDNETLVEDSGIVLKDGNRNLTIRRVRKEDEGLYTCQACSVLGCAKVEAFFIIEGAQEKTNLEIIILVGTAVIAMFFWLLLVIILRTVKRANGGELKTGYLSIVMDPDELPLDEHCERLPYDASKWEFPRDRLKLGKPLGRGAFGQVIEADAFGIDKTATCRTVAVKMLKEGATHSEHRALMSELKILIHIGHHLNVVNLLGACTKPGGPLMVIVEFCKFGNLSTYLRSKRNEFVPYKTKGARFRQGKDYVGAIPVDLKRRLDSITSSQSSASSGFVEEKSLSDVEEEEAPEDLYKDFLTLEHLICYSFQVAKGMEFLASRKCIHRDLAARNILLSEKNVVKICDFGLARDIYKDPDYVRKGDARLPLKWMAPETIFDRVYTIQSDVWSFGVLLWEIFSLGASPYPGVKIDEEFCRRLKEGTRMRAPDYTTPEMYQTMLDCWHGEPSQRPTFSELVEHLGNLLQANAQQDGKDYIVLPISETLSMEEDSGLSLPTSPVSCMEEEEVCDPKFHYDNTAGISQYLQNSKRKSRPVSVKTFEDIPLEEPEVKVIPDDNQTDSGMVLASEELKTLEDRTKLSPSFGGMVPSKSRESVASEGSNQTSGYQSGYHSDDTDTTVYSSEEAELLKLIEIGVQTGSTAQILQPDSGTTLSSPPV
Sequence of ALK tyrosine kinase receptor (Q9UM73 whole entry): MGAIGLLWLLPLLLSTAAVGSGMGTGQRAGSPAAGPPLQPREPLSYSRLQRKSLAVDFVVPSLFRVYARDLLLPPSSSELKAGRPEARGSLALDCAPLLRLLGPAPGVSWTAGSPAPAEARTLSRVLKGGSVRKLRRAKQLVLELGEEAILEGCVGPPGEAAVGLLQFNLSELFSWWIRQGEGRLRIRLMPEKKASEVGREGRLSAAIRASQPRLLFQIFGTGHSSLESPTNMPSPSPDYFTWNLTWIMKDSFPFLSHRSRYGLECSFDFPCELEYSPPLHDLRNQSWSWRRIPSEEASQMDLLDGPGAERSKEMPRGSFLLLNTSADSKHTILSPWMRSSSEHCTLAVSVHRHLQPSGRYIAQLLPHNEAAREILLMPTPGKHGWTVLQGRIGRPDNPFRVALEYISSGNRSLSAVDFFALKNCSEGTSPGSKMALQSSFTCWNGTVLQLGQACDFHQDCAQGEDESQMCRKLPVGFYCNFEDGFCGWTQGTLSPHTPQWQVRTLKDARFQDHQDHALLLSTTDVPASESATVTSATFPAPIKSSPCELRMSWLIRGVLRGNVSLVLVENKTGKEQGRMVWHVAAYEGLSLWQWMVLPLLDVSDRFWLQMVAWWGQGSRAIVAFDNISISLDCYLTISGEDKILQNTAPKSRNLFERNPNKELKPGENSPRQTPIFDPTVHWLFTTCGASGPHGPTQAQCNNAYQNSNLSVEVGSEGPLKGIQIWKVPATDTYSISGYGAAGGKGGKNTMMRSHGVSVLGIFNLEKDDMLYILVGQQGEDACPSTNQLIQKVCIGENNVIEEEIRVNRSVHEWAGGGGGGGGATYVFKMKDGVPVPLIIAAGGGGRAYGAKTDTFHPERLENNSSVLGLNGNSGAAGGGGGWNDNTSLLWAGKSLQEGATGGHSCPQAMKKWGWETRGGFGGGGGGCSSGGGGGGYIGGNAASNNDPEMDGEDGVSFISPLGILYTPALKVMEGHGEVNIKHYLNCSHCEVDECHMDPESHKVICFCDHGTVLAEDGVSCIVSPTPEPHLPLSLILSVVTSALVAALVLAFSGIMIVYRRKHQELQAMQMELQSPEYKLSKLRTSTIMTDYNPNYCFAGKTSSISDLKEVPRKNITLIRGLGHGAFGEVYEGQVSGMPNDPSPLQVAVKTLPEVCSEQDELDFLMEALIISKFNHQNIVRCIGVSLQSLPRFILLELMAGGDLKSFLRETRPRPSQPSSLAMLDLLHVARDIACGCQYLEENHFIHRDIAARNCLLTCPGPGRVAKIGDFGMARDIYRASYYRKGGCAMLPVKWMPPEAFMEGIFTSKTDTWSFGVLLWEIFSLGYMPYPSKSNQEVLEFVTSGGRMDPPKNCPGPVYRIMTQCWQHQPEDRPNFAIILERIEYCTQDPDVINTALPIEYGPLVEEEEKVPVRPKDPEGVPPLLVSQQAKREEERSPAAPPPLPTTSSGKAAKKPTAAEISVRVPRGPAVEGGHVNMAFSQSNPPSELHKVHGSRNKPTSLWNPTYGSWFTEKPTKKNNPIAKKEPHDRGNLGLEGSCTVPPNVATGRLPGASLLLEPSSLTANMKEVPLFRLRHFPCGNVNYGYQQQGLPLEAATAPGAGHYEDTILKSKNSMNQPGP
Sequence of RAC-alpha serine/threonine-protein kinase (P31749 whole entry, the tested form may be a part): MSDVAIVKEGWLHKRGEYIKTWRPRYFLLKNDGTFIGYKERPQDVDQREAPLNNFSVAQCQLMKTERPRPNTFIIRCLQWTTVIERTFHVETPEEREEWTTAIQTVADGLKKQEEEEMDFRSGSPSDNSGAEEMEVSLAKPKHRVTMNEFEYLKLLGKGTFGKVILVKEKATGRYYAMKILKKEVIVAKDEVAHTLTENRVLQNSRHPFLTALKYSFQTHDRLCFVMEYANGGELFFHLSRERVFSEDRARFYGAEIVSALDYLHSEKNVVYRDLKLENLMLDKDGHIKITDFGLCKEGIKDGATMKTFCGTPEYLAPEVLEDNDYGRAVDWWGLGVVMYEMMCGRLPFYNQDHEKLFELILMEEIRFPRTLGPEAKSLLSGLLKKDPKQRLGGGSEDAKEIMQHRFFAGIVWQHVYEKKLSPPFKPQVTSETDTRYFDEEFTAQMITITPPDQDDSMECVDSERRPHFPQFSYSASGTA

Structure (SMILES) | IC50 [1] [µM] | IC50 [2] [µM] | IC50 [3] [µM] | IC50 [4] [µM] | IC50 [5] [µM] | IC50 [6] [µM] | IC50 [7] [µM] | IC50 [8] [µM] | IC50 [9] [µM] | IC50 [10] [µM] | IC50 [11] [µM] | IC50 (Aurora kinase B) [µM] | IC50 [12] [µM] | IC50 (Focal adhesion kinase 1) [µM] | IC50 [13] [µM] | IC50 [14] [µM]
C=C(CC[C@@H](C)[C@H]1CC[C@H]2[C@H](CCc3cc(O)ccc3C)C(=O)CC[C@]12C)C(C)C | > 100 | 100 | 2.3 | > 100 | > 100 | > 100 | 1.48 | 20.2 | > 100 | 4.85 | 4.36 | > 100 | 27.5 | 10.7 | > 100 | > 100
Cc1ccc(O)cc1CC[C@@H]1[C@@H](O)CC[C@]2(C)[C@@H]([C@H](C)/C=C/CC(C)C)CC[C@@H]12 (relative stereo) | > 100 | > 100 | 3.16 | > 100 | > 100 | > 100 | 2.4 | 21.9 | > 100 | 4.95 | 9.33 | 38.1 | – | 16.9 | > 100 | > 100
Cc1ccc(O)cc1CC[C@@H]1[C@H](O)CC[C@]2(C)[C@@H]([C@H](C)CCCC(C)C)[C@@H](O)C[C@@H]12 [CALICOFEROL B] | > 100 | > 100 | > 100 | > 100 | > 100 | > 100 | > 100 | > 100 | > 100 | > 100 | > 100 | > 100 | > 100 | > 100 | > 100 | > 100
C=C(CC[C@@H](C)[C@H]1CC[C@H]2[C@H](CCc3cc(O)ccc3C)[C@H](O)CC[C@]12C)C(C)C [CALICOFEROL C] | > 100 | > 100 | > 100 | > 100 | > 100 | > 100 | > 100 | > 100 | > 100 | > 100 | > 100 | > 100 | > 100 | > 100 | > 100 | > 100
Cc1ccc(O)cc1CC[C@@H]1C(=O)CC[C@]2(C)[C@@H]([C@H](C)CCCC(C)C)CC[C@@H]12 [CALICOFEROL E] | > 100 | > 100 | 2.46 | > 100 | > 100 | > 100 | 2.17 | 32.6 | > 100 | 6.01 | 4.73 | > 100 | – | 9.63 | > 100 | > 100

The next lines start with the values.

IC50 [1] [µM] | IC50 [2] [µM] | IC50 [3] [µM] | IC50 [4] [µM] | IC50 [5] [µM] | IC50 [6] [µM] | IC50 [7] [µM] | IC50 [8] [µM] | IC50 [9] [µM] | IC50 [10] [µM] | IC50 [11] [µM] | IC50 (Aurora kinase B) [µM] | IC50 [12] [µM] | IC50 (Focal adhesion kinase 1) [µM] | IC50 [13] [µM] | IC50 [14] [µM] | Structure (SMILES)
> 100 | > 100 | 2.77 | > 100 | 48.9 | > 100 | 1.91 | 16.9 | > 100 | 4.35 | 7.55 | 25.1 | 78 | 13.2 | > 100 | > 100 | Cc1ccc(O)cc1CC[C@@H]1[C@H](O)CC[C@]2(C)[C@@H]([C@H](C)CCCC(C)C)CC[C@@H]12 [ASTROGORGIADIOL]
> 100 | > 100 | 2.42 | > 100 | > 100 | > 100 | 2.24 | 14.7 | > 100 | 4.6 | 4.16 | > 100 | 47.6 | 9.92 | > 100 | > 100 | Cc1ccc(O)cc1CC[C@@H]1C(=O)CC[C@]2(C)[C@@H]([C@H](C)/C=C/CC(C)C)CC[C@@H]12 [CALICOFEROL A]
> 100 | > 100 | > 100 | > 100 | > 100 | > 100 | > 100 | > 100 | > 100 | > 100 | > 100 | > 100 | > 100 | > 100 | > 100 | > 100 | Cc1ccc(O)cc1CC[C@@H]1C(=O)CC[C@]2(C)[C@@H]([C@H](C)CCCC(C)C)[C@@H](O)C[C@@H]12 [CALICOFEROL I]

From ChEMBL document CHEMBL1921742, “9,10-secosteroids, protein kinase inhibitors from the Chinese gorgonian Astrogorgia sp” (Bioorg Med Chem, 2011)
